# Earlier results as cited in patent publication US11856951B2, “Method for managing resistance to insecticidal traits and chemicals using pheromones” (Provivi, Inc., priority 2015, dated 2024).
# Experiments:
# [1] = test system: virgin female H. zea
# [2] = test system: mated female H. armigera; conditions: mated females
# [3] = test system: Female E. heros
# [4] = test system: mated H. armigera
# [5] = test system: H. armigera males; conditions: wind tunnel assays
smiles,measurement,setting,value
C=C [ethylene],correlation of concentration with calling behaviour,[1],positively correlated
CCCCCCCCCCCCCCCCCC(=O)O [C18:0],electroantennogram response,[2],strong electroantennogram responses
CCCCCCCCCCCCCC(=O)O [C14:0],electroantennogram response,[2],strong electroantennogram responses
"CCCC(C)CCCC(C)CCCC(C)C(=O)OC (centres unmarked) [TMTD, methyl 2,6,10-trimethyltridecanoate]",attraction to lures,[3],attracted
O=Cc1ccccc1 [benzaldehyde],attractiveness of an oviposition substrate,[4],significantly increase the attractiveness
CCCCCCCCCCCCCCCC(=O)O [C16:0],electroantennogram response,[2],strong electroantennogram responses
CCCC/C=C\CCCCCCCCCCO [Z11-16:OH],effect on male upwind flight,[5],inhibits male upwind flight
CCCCCCC=O [Heptanal],attractiveness of an oviposition substrate,[4],significantly increase the attractiveness
